Measured values as given in patent US20120142730A1 (priority 2010, published 2012).

Test system: subjects with relapsing remitting multiple sclerosis (RRMS)
Assay: ALLEGRO phase III trial: patient-reported fatigue (MFIS), SF-36 and EQ5D
Format: in vivo, human
Description: Eligible subjects were equally randomized 1:1 into one of the following treatment arms: • 1. […] 21, 2007 (see, page 10, line 5 to page 11, line 3). • 2. Matching placebo for laquinimod arm: one capsule is administered once daily. The following assessments were performed at specified time points: • 1. Vital signs were measured at each study visit. • 2. A physical examination is performed at months −1 (screening), (baseline) 1, 3, 6, 12, 18 and 24 (termination/early discontinuation core study). In case of the 6 months extended study, additional examination was performed at month 30 (termination/early discontinuation of extended study). • 3. The following safety clinical laboratory tests were performed: • a. Complete blood count (CBC) with differential—at all scheduled visits. A reticulocyte count was added to the CBC at months 0 (baseline) and 24/30 (termination/early discontinuation). • b. Serum chemistry (including electrolytes, liver enzymes, direct and total bilirubin and pancreatic amylase and CPK), and urinalysis—at all scheduled visits. • c. A rapid urine β-hCG test was performed in women of child-bearing potential at baseline (month 0) and at each scheduled study visit thereafter (at site). • d. β-hCG in women of child-bearing potential was performed at all scheduled visits. • e. Starting after visit Month 3 a rapid urine β-hCG test was performed in women of child-bearing potential every 28 (±2) days. The subject was contacted by telephone within 72 hours after the test was scheduled to be performed and asked specific questions regarding the test. In case of suspected pregnancy (positive urine β-hCG test result), the caller made sure that the study drug has been discontinued and the subject was instructed to arrive at the site as soon as possible with all study drugs. • 4. Markers of inflammation (serum conventional C-reactive protein and fibrinogen)—at screening, baseline and all scheduled visits thereafter. • 5. During the first 3 months periodical phone calls were placed by the site personnel every two weeks. […] ECG was performed at months −1 (screening; additional recording, up to 30 minutes apart is performed if QTc is […] 450 msec), (baseline; three recordings, 15 minutes apart), 1, 2, 3, 6, 12, 18 and 24 (termination/early discontinuation). In case of the 6 months extended study, ECG is performed at month 30 (termination/early discontinuation of the extended study). • 7. Chest X-ray is performed at months −1 (screening), (if not performed within 7 months prior to the screening visit). • 8. Adverse Events (AEs) are monitored throughout the study. • 9. Concomitant medications are monitored throughout the study. • 10. Neurological evaluations, including Expanded Disability Status Scale (EDSS), 25 foot walk test/Ambulation Index (AI), Functional systems (FS) are performed at months −1 (screening), (baseline) and every 3 months during the study and the extended study period. • 11. MS functional Composite (MSFC) was assessed at months −1 (screening) (three practices for training purposes only), at month 0 (baseline), 6, 12, 18 and 24 (termination/early discontinuation). In case of the 6 months extended study, the last MSFC was performed at months 30 (termination/early discontinuation of the extended study). • 12. Subject-reported fatigue was assessed by the Modified Fatigue Impact Scale (MFIS) at months 0, 6, 12, 18, and 24 (termination/early discontinuation). In case of the 6 months extended study, additional MFIS was performed at month 30 (termination/early discontinuation of the extended study). • 13. The general health status was assessed by the EuroQoL (EQ5D) questionnaire at month 0 (baseline) and month 24 (termination/early discontinuation of the study). In case of the 6 months extended study, the last EuroQoL (EQ5D) was performed at month 30 (termination/early discontinuation of the extended study) instead of month 24. • 14. […]

[1] = 0.6 mg daily oral, listed as laquinimod

SMILES: CCN(C(=O)c1c(O)c2c(Cl)cccc2n(C)c1=O)c1ccccc1 [Laquinimod, laquinimod]
- EQ-5D dimensions, health status at Month 24, words (0.6 mg daily oral): 0.6 mg maintained their health status at Month 24 while those treated with placebo reported a
- MFIS (Modified Fatigue Impact Scale) adjusted mean score at 24 months (0.6 mg daily oral): 31.9
- SF36 Mental component summary, treatment effect (0.6 mg daily oral vs placebo): 1.848
- MFIS treatment effect (0.6 mg daily oral vs placebo, month 24, p=0.004): −2.53
- EQ5D, effect (0.6 mg daily oral vs placebo, p 0.0267): −2.366
- SF36 Physical component summary, effect (0.6 mg daily oral vs placebo, p 0.1354): 0.65
- SF36 Mental component summary, treatment effect (0.6 mg daily oral vs placebo, listed as laquinimod): 1.68
- EQ5D General Health Status by the Euroqol Questionnaire (0.6 mg daily oral, month 24): 71.0
- SF36 - SFMHD Mental component summary (0.6 mg daily oral, month 24): −0.47
- SF36 - SFPHD Physical component summary (0.6 mg daily oral, month 24): −0.519
- MFIS (Modified Fatigue Impact Scale) adjusted mean score at 24 months [1]: 31.9 (0.71)
- SF-36 PCS score over 24 months, words [1]: The PCS score at Month 24 for those treated with laquinimod 0.6 mg remained stable while the
- Functional disability due to fatigue (MFIS), words (0.6 mg vs placebo at Month 24): average, associated with less functional disability due to fatigue than placebo at Month 24
- Change in adjusted mean MFIS psychosocial subscale score from baseline (at 12 months, p=0.02): significant improvement
- Change in adjusted mean MFIS physical subscale score from baseline (at 24 months, p=0.02): significant improvement
- Change in adjusted mean MFIS cognitive subscale score from baseline (at 24 months, p=0.05): significant improvement
- SF-36 PCS subscale role physical (over 24 months vs placebo, p=0.010): showed improvement
- SF-36 PCS subscale physical functioning (over 24 months vs placebo, p=0.016): showed improvement
- SF-36 PCS difference from placebo, words (over 24 months, p=0.13): did not reach statistical significance
- EQ-5D Anxiety or Depression, effect (vs placebo, Month 24, p 0.0113): 1.425
- EQ-5D Mobility, effect (vs placebo, Month 24, p 0.0181): 1.497
- EQ-5D Self care, effect (vs placebo, Month 24, p 0.0337): 2.251
- EQ-5D Usual activities, effect (vs placebo, Month 24, p 0.4051): 1.129
- EQ-5D Pain discomfort, effect (vs placebo, Month 24, p 0.8024): 1.036
